Earlier results as cited in US12133911B2, “Formulations to achieve rapid dissolution of drug from spray-dried dispersions in capsules” (Capsugel Belgium NV, priority 2015, dated 2024).

Settings: molality (moles of solute per unit mass) of a saturated solution in water

Row | Water Solub. [mol/kg] | SMILES
1 | 0.99 | OC[C@@H](O)[C@@H](O)[C@H](O)[C@H](O)CO [mannitol]
2 | 4.56 | OC[C@@H](O)[C@@H](O)[C@H](O)[C@@H](O)CO [sorbitol]
3 | 4.11 | OC[C@@H](O)[C@H](O)[C@@H](O)CO [xylitol]

Row | SMILES | Water Solub. [mol/kg]
4 | [Cl-].[K+] [KCl, potassium chloride] | 9.40
5 | O=C(CO)[C@@H](O)[C@H](O)[C@H](O)CO [fructose] | 3.89
